Experimental data as given in patent US7115658B2 (priority 2002, dated 2006).

Biological target: T1, Recombinant HCV polymerase (Hepatitis C virus genotype 1b, UniProt P26663)
T1 construct: 2.5 pmoles (0.15 μg) HCV polymerase protein
Assay: HCV Polymerase Inhibition Assay
Assay type: biochemical
Settings: primer/template-directed transcription, 30 minutes at 30° C.; category symbol
How it was run: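 Recombinant genotype 1b polymerase (2.5 pmol) extended biotin-dG12 on poly(rC)300 with 1 μM GTP plus α-32P-GTP, pH 7.2, 30 min at 30 °C, 1% DMSO final; DE-filter-bound product counted. IC50 fitted from triplicate cpm, refitted with enzyme-concentration (30 nM) tight-binding equation when below 200 nM.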

T1 sequence (P26663 2420-3010): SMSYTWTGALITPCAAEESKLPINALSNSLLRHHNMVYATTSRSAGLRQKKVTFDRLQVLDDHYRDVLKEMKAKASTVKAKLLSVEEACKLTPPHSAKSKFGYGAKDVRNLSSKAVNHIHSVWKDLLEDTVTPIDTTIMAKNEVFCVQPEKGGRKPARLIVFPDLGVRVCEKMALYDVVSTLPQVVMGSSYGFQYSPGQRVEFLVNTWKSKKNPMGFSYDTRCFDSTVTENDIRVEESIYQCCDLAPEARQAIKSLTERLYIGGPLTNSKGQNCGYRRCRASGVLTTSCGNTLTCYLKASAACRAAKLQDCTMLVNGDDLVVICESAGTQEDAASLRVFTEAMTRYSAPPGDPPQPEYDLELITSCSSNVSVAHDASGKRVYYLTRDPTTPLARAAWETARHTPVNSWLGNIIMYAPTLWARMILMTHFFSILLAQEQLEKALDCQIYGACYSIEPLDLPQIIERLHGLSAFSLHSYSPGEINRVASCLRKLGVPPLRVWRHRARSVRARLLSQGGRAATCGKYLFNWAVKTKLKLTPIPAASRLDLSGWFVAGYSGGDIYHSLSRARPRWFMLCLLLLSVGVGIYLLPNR

Going from `COc1ccc(CCC2(C3CCCC3)CC3=C(CCCO3)C(=O)O2)c(OC)c1` (stereo not shown) [Example 103, 7-Cyclopentyl-7-[2-(2,4-dimethoxyphenyl)ethyl]-3,4,7,8-tetrahydro-2H,5H-pyrano[4,3-b]pyran-5-one] to `COc1cc(OC)c(CCC2(C3CCCC3)CC(O)=C(SC3=NCCCN3)C(=O)O2)cc1Cl` (stereo not shown) [Example 110, 6-[2-(5-Chloro-2,4-dimethoxyphenyl)ethyl]-6-cyclopentyl-4-hydroxy-3-(1,4,5,6-tetrahydropyrimidin-2-ylthio)-5,6-dihydro-2H-pyran-2-one], the IC50 falls from over 50 µM to under 1 µM. The second is the more potent here.

First: C=CCOCCC1(C2CCCC2)CC(O)=C(Sc2nc3nc(C)cc(C)n3n2)C(=O)O1 (stereo not shown) [Example 104, 6-(2-Allyloxy-ethyl)-6-cyclopentyl-3-(5,7-dimethyl-[1,2,4]triazolo[1,5-a]pyrimidin-2-ylsulfanyl)-4-hydroxy-5,6-dihydro-pyran-2-one]
Second: Cc1cc(C)n2nc(SC3=C(O)CC(CCc4ccc(OCc5ccccc5)cc4)(C4CCCC4)OC3=O)nc2n1 (stereo not shown) [Example 122, 6-{2-[4-(Benzyloxy)phenyl]ethyl}-6-cyclopentyl-3-[(5,7-dimethyl[1,2,4]triazolo[1,5-a]pyrimidin-2-yl)thio]-4-hydroxy-5,6-dihydro-2H-pyran-2-one]
The IC50 of the first is higher: 10 to 50 µM for the first, under 1 µM for the second. The second is the more potent here.

`COc1cc(OC)c(CCC2(C3CCCC3)CC(O)=C(Sc3nc(O)c4cc[nH]c4n3)C(=O)O2)cc1Cl` (stereo not shown) [Example 105, 6-[2-(5-Chloro-2,4-dimethoxyphenyl)ethyl]-6-cyclopentyl-4-hydroxy-3-[(4-hydroxy-7H-pyrrolo[2,3-d]pyrimidin-2-yl)thio]-5,6-dihydro-2H-pyran-2-one] and `COc1cc(OC)c(CCC2(C3CCCC3)CC(O)=C(Sc3cnccn3)C(=O)O2)cc1Cl` (stereo not shown) [Example 108, 6-[2-(5-Chloro-2,4-dimethoxyphenyl)ethyl]-6-cyclopentyl-4-hydroxy-3-(pyrazin-2-ylthio)-5,6-dihydro-2H-pyran-2-one] cannot be ordered by IC50: under 1 µM for the first, under 1 µM for the second.

`CCn1nnnc1SC1=C(O)CC(CCc2cc(Cl)c(OC)cc2OC)(C2CCCC2)OC1=O` (stereo not shown) [Example 106, 6-[2-(5-Chloro-2,4-dimethoxyphenyl)ethyl]-6-cyclopentyl-3-[(1-ethyl-1H-tetraazol-5-yl)thio]-4-hydroxy-5,6-dihydro-2H-pyran-2-one] and `COc1cc(OC)c(CCC2(C3CCCC3)CC(O)=C(Sc3nnnn3CCN(C)C)C(=O)O2)cc1Cl` (stereo not shown) [Example 107, 6-[2-(5-Chloro-2,4-dimethoxyphenyl)ethyl]-6-cyclopentyl-3-({1-[2-(dimethylamino)ethyl]-1H-tetraazol-5-yl}thio)-4-hydroxy-5,6-dihydro-2H-pyran-2-one] cannot be ordered by IC50: under 1 µM for the first, under 1 µM for the second.

`COc1cc(OC)c(CCC2(C3CCCC3)CC(O)=C(Sc3nccs3)C(=O)O2)cc1Cl` (stereo not shown) [Example 109, 6-[2-(5-Chloro-2,4-dimethoxyphenyl)ethyl]-6-cyclopentyl-4-hydroxy-3-(1,3-thiazol-2-ylthio)-5,6-dihydro-2H-pyran-2-one] and `COc1ccc(CCC2(C3CCCC3)CC(O)=C(Sc3nc[nH]n3)C(=O)O2)cc1Cl` (stereo not shown) [Example 124, 6-[2-(3-Chloro-4-methoxy-phenyl)-ethyl]-6-cyclopentyl-4-hydroxy-3-(1 H[1,2,4]triazol-3-ylsulfanyl)-5,6-dihydro-pyran-2-one] cannot be ordered by IC50: under 1 µM for the first, under 1 µM for the second.

First: COc1ccc(CCC2(C3CCCC3)CC(O)=C(Sc3n[nH]c(-c4ccncc4)n3)C(=O)O2)cc1 (stereo not shown) [Example 111, 6-Cyclopentyl-4-hydroxy-6-[2-(4-methoxyphenyl)ethyl]-3-[(5-pyridin-4-yl-1H-1,2,4-triazol-3-yl)thio]-5,6-dihydro-2H-pyran-2-one]
Second: COc1ccc(CCC2(C3CCCC3)CC(O)=C(Sc3nc(N)n[nH]3)C(=O)O2)cc1 (stereo not shown) [Example 115, 3-[(3-Amino-1H-1,2,4-triazol-5-yl)thio]-6-cyclopentyl-4-hydroxy-6-[2-(4-methoxyphenyl)ethyl]-5,6-dihydro-2H-pyran-2-one]
The IC50 of the first is lower: under 1 µM for the first, 1 to 10 µM for the second.

Compared with `COc1ccc(CCC2(C3CCCC3)CC(O)=C(Sc3nc(C)c(CC(=O)O)s3)C(=O)O2)cc1` (stereo not shown) [Example 112, [2-({6-Cyclopentyl-4-hydroxy-6-[2-(4-methoxyphenyl)ethyl]-2-oxo-5,6-dihydro-2H-pyran-3-yl}thio)-4-methyl-1,3-thiazol-5-yl]acetic acid], `CCOC(=O)c1c[nH]c(SC2=C(O)CC(CCc3ccc(OC)cc3)(C3CCCC3)OC2=O)n1` (stereo not shown) [Example 119, Ethyl 2-({6-cyclopentyl-4-hydroxy-6-[2-(4-methoxyphenyl)ethyl]-2-oxo-5,6-dihydro-2H-pyran-3-yl}thio)-1H-imidazole-4-carboxylate] is higher in IC50: under 1 µM for the first, 1 to 10 µM for the second. The first is the more potent here.

`COc1ccc(CCC2(C3CCCC3)CC(O)=C(Sc3nc(O)c4cc[nH]c4n3)C(=O)O2)cc1` (stereo not shown) [Example 113, 6-Cyclopentyl-4-hydroxy-3-[(4-hydroxy-7H-pyrrolo[2,3-d]pyrimidin-2-yl)thio]-6-[2-(4-methoxyphenyl)ethyl]-5,6-dihydro-2H-pyran-2-one] and `O=C1OC(CCc2ccc(OCc3ccccc3)cc2)(C2CCCC2)CC(O)=C1Sc1nc(O)c2cc[nH]c2n1` (stereo not shown) [Example 123, 6-{2-[4-(Benzyloxy)phenyl]ethyl}-6-cyclopentyl-4-hydroxy-3-[(4-hydroxy-7H-pyrrolo[2,3-d]pyrimidin-2-yl)thio]-5,6-dihydro-2H-pyran-2-one] cannot be ordered by IC50: under 1 µM for the first, under 1 µM for the second.

`COc1ccc(CCC2(C3CCCC3)CC(O)=C(Sc3nnnn3-c3ccc(O)cc3)C(=O)O2)cc1` (stereo not shown) [Example 114, 6-Cyclopentyl-4-hydroxy-3-([1-(4-hydroxyphenyl)-1H-tetraazol-5-yl]thio)-6-[2-(4-methoxyphenyl)ethyl]-5,6-dihydro-2H-pyran-2-one] and `CCn1nnnc1SC1=C(O)CC(CCc2ccc(OC)cc2)(C2CCCC2)OC1=O` (stereo not shown) [Example 121, 6-Cyclopentyl-3-[(1-ethyl-1H-tetraazol-5-yl)thio]-4-hydroxy-6-[2-(4-methoxyphenyl)ethyl]-5,6-dihydro-2H-pyran-2-one] cannot be ordered by IC50: under 1 µM for the first, under 1 µM for the second.

`COc1ccc(CCC2(C3CCCC3)CC(O)=C(Sc3nnnn3CCN(C)C)C(=O)O2)cc1` (stereo not shown) [Example 116, 6-Cyclopentyl-3-({1-[2-(dimethylamino)ethyl]-1H-tetraazol-5-yl}thio)-4-hydroxy-6-[2-(4-methoxyphenyl)ethyl]-5,6-dihydro-2H-pyran-2-one] and `COc1ccc(CCC2(C3CCCC3)CC(O)=C(Sc3nnc(O)n3C)C(=O)O2)cc1` (stereo not shown) [Example 117, 6-Cyclopentyl-4-hydroxy-3-[(5-hydroxy-4-methyl-4H-1,2,4-triazol-3-yl)thio]-6-[2-(4-methoxyphenyl)ethyl]-5,6-dihydro-2H-pyran-2-one] fall in the same range of IC50: 1 to 10 µM for the first, 1 to 10 µM for the second.

`COc1ccc(CCC2(C3CCCC3)CC(O)=C(Sc3nc4nc[nH]c4c(=O)[nH]3)C(=O)O2)cc1` (stereo not shown) [Example 118, 2-((6-Cyclopentyl-4-hydroxy-6-[2-(4-methoxyphenyl)ethyl]-2-oxo-5,6-dihydro-2H-pyran-3-yl}thio)-1,7-dihydro-6H-purin-6-one] and `COc1ccc(CCC2(C3CCCC3)CC(O)=C(Sc3nc(N)c4cn[nH]c4n3)C(=O)O2)cc1` (stereo not shown) [Example 120, 3-[(4-Amino-1H-pyrazolo[3,4-d]pyrimidin-6-yl)thio]-6-cyclopentyl-4-hydroxy-6-[2-(4-methoxyphenyl)ethyl]-5,6-dihydro-2H-pyran-2-one] cannot be ordered by IC50: under 1 µM for the first, under 1 µM for the second.
